Data published in ChEMBL document CHEMBL5107941, “Design and optimisation of a small-molecule TLR2/4 antagonist for anti-tumour therapy” (RSC Med Chem, 2021).

Experiments:
Toll-like receptor 2 = Toll-like receptor 2 (Homo sapiens, UniProt O60603); assay: Antagonist activity at human TLR2 in HEK-Blue hTLR2 cells assessed as inhibition of Pam3CSK4-induced receptor activation preincubated with Pam3CSK4 followed by compound addition and measured 24 hrs by Quanti-Blue based SEAP reporter gene assay; assay type: cell-based
Chain of Toll-like receptor 2 (O60603 whole entry): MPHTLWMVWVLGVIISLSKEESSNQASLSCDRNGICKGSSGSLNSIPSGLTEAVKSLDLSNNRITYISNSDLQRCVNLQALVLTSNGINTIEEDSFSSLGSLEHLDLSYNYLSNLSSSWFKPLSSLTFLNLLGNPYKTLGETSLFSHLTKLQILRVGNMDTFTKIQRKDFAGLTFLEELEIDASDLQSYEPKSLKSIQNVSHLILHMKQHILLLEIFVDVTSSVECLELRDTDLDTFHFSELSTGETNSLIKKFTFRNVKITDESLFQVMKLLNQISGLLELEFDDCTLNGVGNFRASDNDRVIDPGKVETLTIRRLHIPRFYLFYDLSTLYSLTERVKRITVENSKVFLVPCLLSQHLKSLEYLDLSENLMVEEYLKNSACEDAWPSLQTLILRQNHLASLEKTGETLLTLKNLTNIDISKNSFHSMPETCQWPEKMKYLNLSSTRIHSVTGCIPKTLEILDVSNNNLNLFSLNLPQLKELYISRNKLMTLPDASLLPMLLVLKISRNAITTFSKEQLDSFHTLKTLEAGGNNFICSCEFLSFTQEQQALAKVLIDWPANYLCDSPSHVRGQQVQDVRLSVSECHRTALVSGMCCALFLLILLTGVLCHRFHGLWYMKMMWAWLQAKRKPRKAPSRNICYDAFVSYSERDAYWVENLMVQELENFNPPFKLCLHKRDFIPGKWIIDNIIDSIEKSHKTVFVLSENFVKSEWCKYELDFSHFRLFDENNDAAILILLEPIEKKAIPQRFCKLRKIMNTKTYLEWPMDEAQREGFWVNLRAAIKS

Toll-like receptor 4 = Toll-like receptor 4 (Homo sapiens, UniProt O00206); assay: Antagonist activity at human TLR4 in HEK-Blue hTLR4 cells assessed as inhibition of LPS-induced receptor activation preincubated with LPS followed by compound addition and measured 24 hrs by Quanti-Blue based SEAP reporter gene assay; assay type: cell-based
Chain of Toll-like receptor 4 (O00206 whole entry): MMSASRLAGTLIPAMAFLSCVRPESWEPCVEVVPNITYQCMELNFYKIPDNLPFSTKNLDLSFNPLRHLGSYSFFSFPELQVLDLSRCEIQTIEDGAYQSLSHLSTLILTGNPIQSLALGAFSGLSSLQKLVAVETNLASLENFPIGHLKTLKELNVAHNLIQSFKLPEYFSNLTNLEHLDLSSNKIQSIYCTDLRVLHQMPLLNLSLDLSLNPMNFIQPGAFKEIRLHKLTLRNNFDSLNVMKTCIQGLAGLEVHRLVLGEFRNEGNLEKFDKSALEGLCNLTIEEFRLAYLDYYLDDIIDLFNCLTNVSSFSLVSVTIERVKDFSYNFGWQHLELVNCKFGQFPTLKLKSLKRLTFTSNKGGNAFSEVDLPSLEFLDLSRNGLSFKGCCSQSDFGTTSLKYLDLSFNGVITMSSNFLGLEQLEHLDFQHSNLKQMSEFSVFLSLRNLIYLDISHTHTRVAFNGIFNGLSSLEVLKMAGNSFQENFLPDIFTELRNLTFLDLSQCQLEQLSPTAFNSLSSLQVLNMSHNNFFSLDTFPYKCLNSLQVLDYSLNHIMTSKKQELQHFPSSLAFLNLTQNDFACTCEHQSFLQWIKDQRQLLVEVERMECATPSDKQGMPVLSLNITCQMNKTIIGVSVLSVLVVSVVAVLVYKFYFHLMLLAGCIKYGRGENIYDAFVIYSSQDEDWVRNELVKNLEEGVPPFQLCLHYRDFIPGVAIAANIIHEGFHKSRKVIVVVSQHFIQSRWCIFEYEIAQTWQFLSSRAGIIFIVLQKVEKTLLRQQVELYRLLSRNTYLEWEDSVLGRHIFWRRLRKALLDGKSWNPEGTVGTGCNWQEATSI

[1] = Cytotoxicity against mouse RAW264.7 cells assessed as lethal dose measured after 24 hrs by CCK-8 assay; assay type: toxicity, cell-based; conditions: read-out: LD50
[2] = Cytotoxicity against HEK-Blue hTLR2 cells assessed as lethal dose measured after 24 hrs by CCK-8 assay; assay type: toxicity, cell-based; conditions: human, read-out: LD50
[3] = Cytotoxicity against HEK-Blue hTLR4 cells assessed as lethal dose measured after 24 hrs by CCK-8 assay; assay type: toxicity, cell-based; conditions: human, read-out: LD50

SMILES | IC50 (Toll-like receptor 2) [µM] | IC50 (Toll-like receptor 4) [µM] | also measured
O=[N+]([O-])/C=C/c1cccc(OCc2ccc(Cl)cc2)c1 | 4.3 | 4.8 | 
O=[N+]([O-])/C=C/c1cccc(OCc2ccc(F)cc2)c1 | 5.5 | 4.2 | 
O=[N+]([O-])/C=C/c1cccc(OCc2ccccc2)c1 | 3.3 | 3.5 | 
CCOC(=O)c1ccc(COc2cccc(/C=C/[N+](=O)[O-])c2)nc1 | 12.3 | 9.2 | 
O=[N+]([O-])/C=C/c1ccc(Oc2ccccc2)cc1 |  | 6.5 | 
O=[N+]([O-])/C=C/c1ccccc1Oc1ccccc1 | 4.4 |  | 
O=C(Nc1ccccn1)c1cccc(/C=C/[N+](=O)[O-])c1 |  | 3.6 | 
O=[N+]([O-])/C=C/c1cccc(Nc2ncccn2)c1 | 2.6 | 2.8 | 
O=[N+]([O-])/C=C/c1cccc(Oc2ccccn2)c1 | 1.2 | 1 | 
O=[N+]([O-])/C=C/c1cccc(Oc2ncccn2)c1 |  | 6.2 | 
CN(C)c1ccc(/C=C/[N+](=O)[O-])cc1Nc1ccccn1 |  | 3.7 | 
O=[N+]([O-])/C=C/c1cccc(-c2ccccn2)c1 |  | 0.28 | 
O=[N+]([O-])/C=C/c1cccc(OCC2CCCCC2)c1 |  | 5.9 | 
O=[N+]([O-])/C=C/c1cccc(OCc2ccccn2)c1 | 1.1 | 1.4 | 
CCCOC(=O)c1ccc(COc2cccc(/C=C/[N+](=O)[O-])c2)nc1 |  | 5.9 | 
O=[N+]([O-])/C=C/c1cccc(Oc2nccs2)c1 |  | 2.4 | 
CCCCOc1cccc(/C=C/[N+](=O)[O-])c1 | 3.9 | 5.8 | 
O=[N+]([O-])/C=C/c1cccc(OCC2CC2)c1 | 2.4 | 2.5 | 
COc1ccc(COc2cccc(/C=C/[N+](=O)[O-])c2)cc1 | 4.4 | 5.6 | 
CCCCOC(=O)c1ccc(COc2cccc(/C=C/[N+](=O)[O-])c2)nc1 | 3.1 | 3.7 | 
O=[N+]([O-])/C=C/c1cccc(Nc2ccccn2)c1 |  | 0.46 | CC50 at 24 h [1]: 28 µM; CC50 at 24 h [2]: 28 µM; CC50 at 24 h [3]: 28 µM
O=[N+]([O-])/C=C/c1cccc(Nc2cccnc2)c1 |  | 3.1 | 
O=[N+]([O-])/C=C/c1cccc(OCc2ccncc2)c1 | 3.2 | 3.9 | 
C/C(=C\[N+](=O)[O-])c1cccc(Oc2ccccc2)c1 |  | 6.3 | 
O=[N+]([O-])/C=C/c1cccc(Oc2ccccc2)c1 | 3.4 | 4.3 | 
O=[N+]([O-])/C=C/c1cccc(OCc2ccc3ccccc3c2)c1 | 5 | 4.4 | 
